From patent US4003915A, “Tricyclic imines” (Hoffmann-La Roche Inc., priority 1970, dated 1977)

Key:
[1] = LD50 in mice on oral administration (toxicity); details: mouse, in vivo
[2] = anticonvulsant properties (no test described); details: in words
[3] = diuretic activity; details: in words
[4] = antidepressant activity; details: in words
[5] = anticholinergic activity; details: in words
[6] = antitussive activity; details: in words
[7] = anti-Parkinson activity; details: in words

Row | Structure (SMILES) | LD50 [1] | antidepressant activity [4] | anticholinergic activity [5] | activity against Parkinsonism [7] | other results
1 | CN(C)CCN=C1c2ccccc2CCc2c(Br)cccc21 [1-bromo-N-(2-dimethylamino-ethyl)-10,11-dihydro-5H-dibenzo[a,d]cyclohepten-5-imine] | ~750 mg/kg | – | – | – | anticonvulsant properties [2]: strong
2 | CCN(CC)CCN=C1c2ccccc2CCc2c(Cl)cccc21 [1-chloro-N-(2-diethylamino-ethyl)-10,11-dihydro-5H-dibenzo[a,d]cyclohepten-5-imine] | – | – | – | – | diuretic activity [3]: strong
3 | CN(C)CCN=C1c2ccccc2CCc2c(Cl)cccc21 [1-chloro-N-(2-dimethylamino-ethyl)-10,11-dihydro-5H-dibenzo[a,d]cyclohepten-5-imine] | ~750 mg/kg | acts principally as an antidepressant | very weak | – | –
4 | CCN(CC)CCN=C1c2ccccc2CCc2ccc(Cl)cc21 [3-chloro-N-(2-diethylamino-ethyl)-10,11-dihydro-5H-dibenzo[a,d]cyclohepten-5-imine] | – | – | – | – | antitussive activity [6]: strong
5 | CN(C)CCN=C1c2ccccc2CCc2ccc(Cl)cc21 [3-chloro-N-(2-dimethylamino-ethyl)-10,11-dihydro5H-dibenzo[a,d]cyclohepten-5-imine] | – | strong | strong | very active | –
6 | CN(C)CCN=C1c2ccccc2CCc2ccccc21 [N-(2-dimethylamino-ethyl)-10,11-dihydro-5H-dibenzo[a,d]cyclohepten-5-imine] | – | – | – | very active | central and peripheral anticholinergic activity ([5]; central and peripheral): strong
